The record followed here is the NIST ThermoML archive (doi:10.1016/j.jct.2015.08.006).

The conditions of the data set: 298.44 K, Pendant drop shape.

Numbers after ± are expanded uncertainties.

One may read the surface tension liquid-gas as the force per length acting along the surface.

As to `O` [water], the surface tension liquid-gas worked out at 71.9 ± 0.6 mN/m.
